US7629340B2, “N-(6-membered aromatic ring)-amido anti-viral compounds” (SmithKline Beecham Corporation, priority 2005, dated 2009)

Assay: Replicon Assay (luciferase, ET cell line)
Format: cell-based, HCV
Settings: Hepatitis C virus; % inhibition of replication relative to no compound control, test concentration of 10 μM; ET cells, luciferase read 48-72 hours; read-out: % inhib at 10 uM
Protocol: A cell line, ET (Huh-lucubineo-ET) was used for screening of compounds of the present invention for HCV RNA dependent RNA polymerase. The ET cell line was stably transfected with RNA transcripts harboring a I389luc-ubi-neo/NS3-3′/ET; replicon with firefly luciferase-ubiquitin-neomycin phosphotransferase fusion protein and EMCV-IRES driven NS3-5B polyprotein containing the cell culture adaptive mutations (E1202G; T1280I; K1846T) (Krieger at al, 2001 and unpublished). The ET cells were grown in DMEM, supplemented with 10% fetal calf serum, 2 mM Glutamine, Penicillin (100 IU/mL)/Stretomycin (100 μg/mL), 1× nonessential amino acids, and 250 μg/mL G418 (“Geneticin”). They were all available through Life Technologies (Bethesda, Md.). The cells were plated at 0.5−1.0×10^4 cells/well in the 96 well plates and incubated for 24 hrs before adding nucleoside analogs. […] Luciferase activity were measured 48-72 hours later by adding a lysis buffer and the substrate (Catalog number Glo-lysis buffer E2661 and Bright-Glo luciferase system E2620 Promega, Madison, Wis.). Cells should not be too confluent during the assay. Percent inhibition of replication was plotted relative to no compound control. Under the same condition, cytotoxicity of the compounds was determined using cell proliferation reagent, WST-1 (Roche, Germany). The compounds showing antiviral activities, but no significant cytotoxicities were chosen to determine IC50 and TC50. For these determinations, 10 concentration of each compound were used. Concentrations for test compounds typically span a range of 500 fold. IC50 and TC50 values were calculated by fitting % inhibition at each concentration (I) to the following equation: % inhibition=100%/[1+10^(log IC50−log(I))*b] where b is Hill's coefficient.

## O=C(Nc1cccc(-c2ccc3cc[nH]c3c2)c1)[C@@H]1CCCN1C(=O)OCc1ccccc1 [Compound 6097, 2-[3-(1H-Indol-6-yl)-phenylcarbamoyl]-pyrrolidine-1-carboxylic acid benzyl ester]
  inhibition at 10 µM: 99.8%

## O=C(NC1CC1)c1ccc(-c2cccc(NC(=O)[C@@H]3CCCN3C(=O)OCc3ccccc3)c2)cc1 [Compound 6301, 2-(4′-Cyclopropylcarbamoyl-biphenyl-3-ylcarbamoyl)-pyrrolidine-1-carboxylic acid benzyl ester]
  inhibition at 10 µM: 99.1%

## O=C(NC1CC1)c1csc(-c2cccc(NC(=O)[C@@H]3CCCN3C(=O)OCc3ccccc3)c2)n1 [Compound 6302, 2-[3-(4-Cyclopropylcarbamoyl-thiazol-2-yl)-phenylcarbamoyl]-pyrrolidine-1-carboxylic acid benzyl ester]
  inhibition at 10 µM: 12.2%

## O=C(Nc1cccc(-c2ccc3ncsc3c2)c1)[C@@H]1CCCN1C(=O)OCc1ccccc1 [Compound 6304, 2-(3-Benzothiazol-6-yl-phenylcarbamoyl)-pyrrolidine-1-carboxylic acid benzyl ester]
  inhibition at 10 µM: 70.4%

## O=C(NC1CC1)c1ccc(NC(=O)[C@@H]2CCCN2C(=O)OCc2ccccc2)cc1 [Compound 6305, 2-(4-Cyclopropylcarbamoyl-phenylcarbamoyl)-pyrrolidine-1-carboxylic acid benzyl ester]
  inhibition at 10 µM: 88.2%

## N#Cc1cccc(-c2cccc(NC(=O)[C@@H]3CCCN3C(=O)OCc3ccccc3)c2)c1 [Compound 6307, 2-(3′-Cyano-biphenyl-3-ylcarbamoyl)-pyrrolidine-1-carboxylic acid benzyl ester]
  inhibition at 10 µM: 32.3%

## O=C(NCc1ccc(-c2cccc(NC(=O)[C@@H]3CCCN3C(=O)OCc3ccccc3)c2)cc1)C1CC1 [Compound 6308, 2-{4′-[(Cyclopropanecarbonyl-amino)-methyl]-biphenyl-3-ylcarbamoyl}-pyrrolidine-1-carboxylic acid benzyl ester]
  inhibition at 10 µM: 56.2%

## O=C(Nc1cccc(-c2cccc([N+](=O)[O-])c2)c1)[C@@H]1CCCN1C(=O)OCc1ccccc1 [Compound 6309, 2-(3′-Nitro-biphenyl-3-ylcarbamoyl)-pyrrolidine-1-carboxylic acid benzyl ester]
  inhibition at 10 µM: 99.8%

## O=C(NC1CC1)c1cccc(-c2cccc(NC(=O)[C@@H]3CCCN3C(=O)OCc3ccccc3)c2)c1 [Compound 6310, 2-(3′-Cyclopropylcarbamoyl-biphenyl-3-ylcarbamoyl)-pyrrolidine-1-carboxylic acid benzyl ester]
  inhibition at 10 µM: 78.4%

## O=C(NCc1cccc(-c2cccc(NC(=O)[C@@H]3CCCN3C(=O)OCc3ccccc3)c2)c1)C1CC1 [Compound 6311, 2-{3′-[(Cyclopropanecarbonyl-amino)-methyl]-biphenyl-3-ylcarbamoyl}-pyrrolidine-1-carboxylic acid benzyl ester]
  inhibition at 10 µM: 94.2%

## O=C(Cc1cccc(-c2cccc(NC(=O)[C@@H]3CCCN3C(=O)OCc3ccccc3)c2)c1)NC1CC1 [Compound 6312, 2-(3′-Cyclopropylcarbamoylmethyl-biphenyl-3-ylcarbamoyl)-pyrrolidine-1-carboxylic acid benzyl ester]
  inhibition at 10 µM: 68.6%
